How the values were obtained:
[1] = target: T1, σ2 (Rattus norvegicus, UniProt Q5U3Y7); test: σ2 receptor binding assay, [3H]DTG (+ 300 nM (+)pentazocine); details: for % of Control Specific Binding, 1st / % of Control Specific Binding, 2nd / % of Control Specific Binding, Mean: 1.0E−06 M; for % of Control Specific Binding, 1st: 1st individual value; for % of Control Specific Binding, 2nd: 2nd individual value; for % Inhibition of Control Specific Binding: test concentration 1.0E−06 M
T1 sequence (Q5U3Y7 1-176): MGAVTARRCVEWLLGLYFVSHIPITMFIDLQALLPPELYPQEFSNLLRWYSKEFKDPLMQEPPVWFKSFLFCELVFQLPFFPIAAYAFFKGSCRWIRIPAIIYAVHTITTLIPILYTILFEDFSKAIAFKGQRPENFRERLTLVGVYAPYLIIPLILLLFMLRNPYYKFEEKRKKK
Excerpt: (§1) The specific ligand binding to the receptors is defined as the difference between the total binding and the nonspecific binding determined in the presence of an excess of unlabelled ligand.
(§2) The results are expressed as a percent of control specific binding and as a percent inhibition of control specific binding obtained in the presence of the test compounds. Individual and mean values are presented in the results section.
(§3) The IC50 values (concentration causing a half-maximal inhibition of control specific binding) and Hill coefficients (nH) were determined by non-linear regression analysis of the competition curves using Hill equation curve fitting. The inhibition constants (Ki) were calculated from the Cheng Prusoff equation (Ki=IC50/(1+(L/KD)), where L=concentration of radioligand in the assay, and KD=affinity of the radioligand for the receptor).

[2] = test system: muscarinic M1 receptors; test: Isolated organ bioassay, test for agonist activity, field-stimulated rabbit vas deferens; format: biochemical; details: for Effect on twitch contraction amplitude (in words): untreated field-stimulated tissues
Experimental: (§4) Prostatic segments of rabbit vas deferens were suspended in 20-ml organ baths containing an oxygenated (95% O2 and 5% CO2) and pre-warmed (30° C.) physiological salt solution of the following composition (in mM): NaCl 118.0, KCl 4.7, MgSO4 0.6, CaCl2) 2.5, KH2PO4 1.2, NaHCO325 and glucose 11.0 (pH 7.4).
(§5) Yohimbine (1 μM) and naloxone (1 μM) were also present throughout the experiments to block the α2-adrenergic and opioid receptors, respectively.
(§6) The tissues were connected to force transducers for isometric tension recordings. They were stretched to a resting tension of 1 g then allowed to equilibrate for 60 min during which time they were washed repeatedly and the tension readjusted. Thereafter, they were stimulated electrically with square wave pulses (submaximal intensity, 1 msec duration, 0.1 Hz) delivered by a constant current stimulator.
The tissues were exposed to a submaximal concentration of the reference agonist McN-A-343 (1 μM) to verify responsiveness and to obtain a control response. Following washings and recovery of the initial twitch contractions, the tissues were exposed to the test compounds or the same agonist which were left in contact with the tissues until a stable response was obtained or for a maximum of 15 min.
(§7) The parameter measured was the maximum change in the amplitude of the electrically-evoked contractions induced by the compounds.
(§8) The results are expressed as a percent of the control response to McN-A-343 (mean values).

[3] = target: σ1 (h) (Homo sapiens, UniProt Q99720); test: σ1 (h) receptor binding assay, [3H](+)pentazocine; details: hydrochloride; for % of Control Specific Binding, 1st / % of Control Specific Binding, 2nd / % of Control Specific Binding, Mean: 1.0E−06 M; for % of Control Specific Binding, 1st: 1st individual value; for % of Control Specific Binding, 2nd: 2nd individual value; for % Inhibition of Control Specific Binding: test concentration 1.0E−06 M
Excerpt: as §1, §2, §3

[4] = test system: muscarinic M1 receptors; test: Isolated organ bioassay, test for antagonist activity, field-stimulated rabbit vas deferens; format: biochemical; details: for Response to McN-A-343 (1.0E−06M) in the presence of the compound, percent of the control response: mean, n=2; for Behaviour at the M1 receptors (conclusion): rabbit vas deferens
Experimental: as §4, §5, §6
The tissues were exposed to a submaximal concentration of the reference agonist McN-A-343 (1 μM) to obtain a control response.
If it occurred, a recovery of the twitch contraction amplitude by the test compounds indicated an antagonist activity at the M1 receptors.
as §7, §8

[5] = in vivo, po
[6] = Neuroprotection in stroke patient (Example 4); format: in vivo; details: person, ischemic event of middle cerebral artery, 1 mg i.v.
Experimental: A person enters the emergency room and is diagnosed with an ischemic event involving the middle cerebral artery, with symptomatology onset being less than 1 hr. Immediately, the patient is administered an i.v. supplemented with 1 mg of ⊖Anevex2-73 substantially free of Anavex2-73 ? while blood supply to the restricted area is restored.

[7] = Neuroprotection against oxidative (anoxic) stress, balloon ascent (Example 2); format: in vivo; details: 10 mgs oral daily for 5 days before ascent to 6,000 meters without oxygen assist
Excerpt: A person balloonist, anticipating anoxic stress, is orally administered 10 mgs of oral ⊖Anevex2-73 substantially free of Anavex2-73 ? daily for 5 days preceding a balloon ascent.

[8] = Treatment of Alzheimer's patients (Examples 1 and 5); format: in vivo
Experimental: A person diagnosed with early stage Alzheimer's dementia is treated with 10 mg of ⊖Anevex2-73 substantially free of Anavex2-73 ? , once per week for three years.
A patient is diagnosed with AD and treated with 10 mg of ⊖Anevex2-73 substantially free of Anavex2-73 ? daily for 3 yrs.

σ1 (h), sequence (Q99720 whole entry): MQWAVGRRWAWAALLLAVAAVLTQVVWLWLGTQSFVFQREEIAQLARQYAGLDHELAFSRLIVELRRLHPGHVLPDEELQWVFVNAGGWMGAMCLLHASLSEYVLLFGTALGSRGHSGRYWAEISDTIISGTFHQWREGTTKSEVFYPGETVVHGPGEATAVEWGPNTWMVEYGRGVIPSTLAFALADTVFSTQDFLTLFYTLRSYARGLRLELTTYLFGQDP

CN(C)CC1COC(c2ccccc2)(c2ccccc2)C1.Cl (single isomer, unassigned; (-)) [(−) A1-41, tetrahydro-N,N-dimethyl-5,5-diphenyl-3-furanmethanamine hydrochloride]
% of Control Specific Binding, 1st ([1]; hydrochloride): 41.0% | % of Control Specific Binding, 2nd ([1]; hydrochloride): 40.3% | % of Control Specific Binding, Mean ([1]; hydrochloride): 40.7% | % Inhibition of Control Specific Binding ([1]; listed as (−) A1-14, hydrochloride): 59% | Response to the compound (decrease in twitch contraction amplitude), percent of the control response to McN-A-343 ([2]; compound 1.0E−05M, mean, n=2, listed as (−) AE 14, hydrochloride): −8% | Response to the compound (decrease in twitch contraction amplitude), percent of the control response to McN-A-343 ([2]; compound 1.0E−06M, mean, n=2, listed as (−) AE 14, hydrochloride): −5% | Effect on twitch contraction amplitude (in words) [2]: did not decrease the twitch contraction amplitude but caused a slight to moderate increase | % of Control Specific Binding, 1st [3]: 35.7% | % of Control Specific Binding, 2nd [3]: 33.3% | % of Control Specific Binding, Mean [3]: 34.5% | % Inhibition of Control Specific Binding [3]: 65% | Response to McN-A-343 (1.0E−06M) in the presence of the compound, percent of the control response ([4]; compound 1.0E−05M, listed as (−) AE 14, hydrochloride): 9% | Response to McN-A-343 (1.0E−06M) in the presence of the compound, percent of the control response ([4]; compound 1.0E−06M, listed as (−) AE 14, hydrochloride): 20% | Behaviour at the M1 receptors (conclusion) [4]: behave as antagonists at the M1 receptors

CN(C)CC1CCOC1(c1ccccc1)c1ccccc1.Cl (single isomer, unassigned; (+)) [(+) A2-73, tetrahydro-N,N-dimethyl-2,2-diphenyl-3-furanmethanamine hydrochloride]
% of Control Specific Binding, 1st ([1]; hydrochloride): 88.9% | % of Control Specific Binding, 2nd ([1]; hydrochloride): 83.2% | % of Control Specific Binding, Mean ([1]; hydrochloride): 86.1% | % Inhibition of Control Specific Binding ([1]; hydrochloride): 14% | % of Control Specific Binding, 1st [3]: 81.5% | % of Control Specific Binding, 2nd [3]: 81.1% | % of Control Specific Binding, Mean [3]: 81.3% | % Inhibition of Control Specific Binding [3]: 19%

CN(C)CC1CCOC1(c1ccccc1)c1ccccc1.Cl (single isomer, unassigned; (-)) [(−) A2-73, tetrahydro-N,N-dimethyl-2,2-diphenyl-3-furanmethanamine hydrochloride]
% of Control Specific Binding, 1st ([1]; hydrochloride): 126.1% | % of Control Specific Binding, 2nd ([1]; hydrochloride): 100.6% | % of Control Specific Binding, Mean ([1]; hydrochloride): 113.4% | % Inhibition of Control Specific Binding ([1]; hydrochloride): −13% | Damage after neurotoxin exposure [5]: suffers no damage | Response to the compound (decrease in twitch contraction amplitude), percent of the control response to McN-A-343 ([2]; compound 1.0E−05M, mean, n=2): −20% | Response to the compound (decrease in twitch contraction amplitude), percent of the control response to McN-A-343 ([2]; compound 5.0E−05M, mean, n=2): −33% | Effect on twitch contraction amplitude (in words) [2]: did not decrease the twitch contraction amplitude but caused a slight to moderate increase | % of Control Specific Binding, 1st [3]: 50.7% | % of Control Specific Binding, 2nd [3]: 50.0% | % of Control Specific Binding, Mean [3]: 50.4% | % Inhibition of Control Specific Binding [3]: 50% | Response to McN-A-343 (1.0E−06M) in the presence of the compound, percent of the control response ([4]; compound 1.0E−05M): 16% | Response to McN-A-343 (1.0E−06M) in the presence of the compound, percent of the control response ([4]; compound 5.0E-05M): −1% | Behaviour at the M1 receptors (conclusion) [4]: behave as antagonists at the M1 receptors | CT/MRI imaging of the affected region [6]: no signs of lesioning in the affected region | Daily testing of cognitive and motor systems [6]: no deficits in physical or mental capacities | Anoxic damage [7]: suffers no anoxic damage | Cognitive score ([8]; person with AD, 10 mg daily for 3 yrs): stabilizes and then increases slowly and regularly | Brain content in amyloid peptide oligomers on autopsy ([8]; person, 10 mg once per week for three years): very low content in amyloid peptide oligomers | Mental function tested quarterly ([8]; person, early stage Alzheimer's dementia, 10 mg once per week for three years): does not decrease over the period

CN(C)CC1COC(c2ccccc2)(c2ccccc2)C1.Cl (single isomer, unassigned; (+)) [(+) A1-41, tetrahydro-N,N-dimethyl-5,5-diphenyl-3-furanmethanamine hydrochloride]
% of Control Specific Binding, 1st ([1]; hydrochloride): 60.0% | % of Control Specific Binding, 2nd ([1]; hydrochloride): 56.8% | % of Control Specific Binding, Mean ([1]; hydrochloride): 58.4% | % Inhibition of Control Specific Binding ([1]; listed as (+) A1-14, hydrochloride): 42% | Response to the compound (decrease in twitch contraction amplitude), percent of the control response to McN-A-343 ([2]; compound 1.0E−05M, mean, n=2, listed as (+) AE 14, hydrochloride): −31% | Response to the compound (decrease in twitch contraction amplitude), percent of the control response to McN-A-343 ([2]; compound 1.0E−06M, mean, n=2, listed as (+) AE 14, hydrochloride): −16% | Effect on twitch contraction amplitude (in words) [2]: did not decrease the twitch contraction amplitude but caused a slight to moderate increase | % of Control Specific Binding, 1st [3]: 35.0% | % of Control Specific Binding, 2nd [3]: 32.9% | % of Control Specific Binding, Mean [3]: 34.0% | % Inhibition of Control Specific Binding [3]: 66% | Response to McN-A-343 (1.0E−06M) in the presence of the compound, percent of the control response ([4]; compound 1.0E−05M, listed as (+) AE 14, hydrochloride): 1% | Response to McN-A-343 (1.0E−06M) in the presence of the compound, percent of the control response ([4]; compound 1.0E−06M, listed as (+) AE 14, hydrochloride): 13% | Behaviour at the M1 receptors (conclusion) [4]: behave as antagonists at the M1 receptors

C[N+](C)(C)CC#CCOC(=O)Nc1cccc(Cl)c1.[Cl-] [McN-A-343, reference compound]
Response to the compound + pirenzepine, percent of the control response to McN-A-343 ([2]; + pirenzepine (1.0E−07M), mean, n=2): −5% | Response to the compound (decrease in twitch contraction amplitude), percent of the control response to McN-A-343 ([2]; compound 1.0E−06M, mean, n=2): 99% | Response to the compound (decrease in twitch contraction amplitude), percent of the control response to McN-A-343 ([2]; compound 1.0E−07M, mean, n=2): 29% | Response to the compound (decrease in twitch contraction amplitude), percent of the control response to McN-A-343 ([2]; compound 3.0E−07M, mean, n=2): 67% | Effect on twitch contraction amplitude (in words) [2]: concentration-dependent decrease in the twitch contraction amplitude

From patent US12208079B2, “Enantiomers of A2-73, analogues, and sigma agonist activity” (Anavex Life Sciences Corp., priority 2015, dated 2025)
